Test results from patent US11578055B2, “Triazacyclododecansulfonamide (“TCD”)-based protein secretion inhibitors” (KEZAR LIFE SCIENCES, priority 2018, dated 2023).
pEC50, pIC50: −log10 of the molar value. Where a name gives a salt, the structure may show the parent alone. Read-outs that look alike come from different tables or passages of the source.

How the values were obtained:
[1] = tested on: PD1 signal sequence plus 10 amino acids fused to Gaussia Luciferase (PD1-ss+10aa/Gaussia Luciferase); assay: Dox Induced PD1-ss-Gluc Assay; format: cell-based; conditions: 24 hr, read-out: 24 hr Dox Inducible PD1ssGluc 293FRT/TO: Mean IC50
Outline: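 Stable Flp-In 293 T-REx line expressing the fusion under tetracycline-inducible control, plated the day before assay. Compound dilutions added with doxycycline and incubated at 37 °C, 5% CO2; unspecified stereocentres mean data refer to stereoisomer mixtures.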

[2] = tested on: multiple myeloma cell line U266B1; assay: U266 Cell Viability Assay; format: cell-based, human; conditions: Homo sapiens, U-266, 48 hr
Outline: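 U266B1 myeloma cells in RPMI 1640 with 10% FBS were treated with compound dilutions for 48 h at 37° C, 5% CO2. Viability was read as CellTiter-Glo luminescence. Data for structures drawn without stereochemistry refer to stereoisomer mixtures.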

[3] = In Vitro Microsome Stability Assay (monkey); format: in vitro ADME
Outline: (§1)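 Species liver microsomes in potassium phosphate buffer were preincubated at 37 °C for 3–5 min with test compound (added from 0.25 mM DMSO stock), then started with NADPH. Samples at 0 and 30 min were quenched with acetonitrile containing internal standard and analysed by LC-MS/MS; % remaining at 30 min used analyte/IS AUC ratios relative to t=0.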

[4] = In Vitro Microsome Stability Assay (human); format: in vitro ADME
Outline: as §1

[5] = In Vitro Microsome Stability Assay (mouse); format: in vitro ADME
Outline: as §1

[6] = tested on: full length TNFα (amino acids 1-233) fused to Gaussia Luciferase; assay: Dox Induced TNFα-FL-Gluc Assay; format: cell-based; conditions: 24 hr, read-out: 24 hr Dox Inducible TNFaFLGluc 293FRT/TO: Mean IC50
Outline: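 Stable Flp-In 293 T-REx line expressing doxycycline-inducible full-length TNFα fused to Gaussia luciferase; cells plated the day before, then treated with compound dilutions in doxycycline-containing medium at 37° C, 5% CO2. Unspecified stereocentres mean stereoisomer mixtures were tested.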

[7] = In Vitro Microsome Stability Assay (rat); format: in vitro ADME
Outline: as §1

[8] = tested on: full length PD1 (amino acids 1-288) fused to Firefly Luciferase; assay: Dox Induced PD1-FL-Gluc Assay; format: cell-based; conditions: 24 hr, 293FRT/TO; read-out: 24 hr Dox Inducible PD1FLFluc 293FRT/TO: Mean IC50
Description: FIp-In 293 T-REx™ cells were transfected with pcDNA™5/FRT/TO plasmid inserted with cDNA encoding Firefly Luciferase fused to the 3′ end of cDNA encoding full length PD1 (amino acids 1-288). Transfected cells were selected for resistance to the selectable markers Hygromycin and Blasticidin to create a stable cell line that contained the PD1-FL/Firefly Luciferase cDNA insert whose expression was regulated under the T-REx™ system. The day before assay, cells were trypsinized and plated in 384-well tissue culture plates. The next day, compound dilutions in DMSO/media containing doxycycline were added to the wells and incubated at 37° C., 5% CO2.
For chemical structures that include one or more stereoisomers, but are illustrated without indicating stereochemistry, the assay data refers to a mixture of stereoisomers.

[9] = tested on: multiple myeloma cell line NCl-H929; assay: H929 Cell Viability Assay; format: cell-based, human; conditions: Homo sapiens, NCI-H929, 48 h
Outline: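 NCI-H929 myeloma cells in RPMI 1640 with 10% FBS were treated with compound dilutions for 48 h at 37 °C, and viability was then read by CellTiter-Glo luminescence. Compounds drawn without stereochemistry were tested as stereoisomer mixtures.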

[10] = tested on: full length IL-2 (amino acids 1-153) fused to Gaussia Luciferase; assay: Dox Induced IL2-FL-Gluc Assay; format: cell-based; conditions: 24 hr, Dox inducible, 293FRT/TO cells; read-out: 24 hr Dox Inducible IL2FLGluc 293FRT/TO: Mean IC50
Outline: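 Flp-In 293 T-REx stable line expressing full-length IL-2 (aa 1-153) with C-terminal Gaussia luciferase fusion under doxycycline-inducible control. Cells plated the day before; compound dilutions added in DMSO/media containing doxycycline, incubated at 37° C, 5% CO2.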

[11] = tested on: HER3 signal sequence plus 4 amino acids fused to Gaussia Luciferase (HER3-ss+4aa/Gaussia Luciferase); assay: Dox Induced HER3-ss-Gluc Assay; format: cell-based; conditions: 24 hr, doxycycline induced, Flp-In 293 T-REx cells; read-out: 24 hr Dox Inducible Her3(ss + 4) Gluc 293FRT/TO: Mean 1050
Outline: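 Stable Flp-In 293 T-REx line expressing HER3 signal sequence+4aa/Gaussia luciferase under doxycycline-inducible control. Cells plated the day before; compound dilutions added in doxycycline-containing medium and incubated at 37° C, 5% CO2.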

[12] = U266, read-out: 48 hr U266 Viability Celltiter-Glo: Mean EC50
[13] = H929, read-out: 48 hr H929 Viability Celltiter-Glo: Mean EC50
[14] = monkey liver microsomes, 30 min w/ NADPH
[15] = human liver microsomes, 30 min w/ NADPH
[16] = mouse liver microsomes, 30 min w/ NADPH
[17] = rat liver microsomes, 30 min w/ NADPH

SMILES | pIC50 ([1]; 293FRT/TO) | pEC50 [2, 12] | Liver Microsome Stability-% Left after 30 min w/ NADPH (%) Monkey ([3]; monkey, 30 min, NADPH) | Liver Microsome Stability-% Left after 30 min w/ NADPH (%) Human ([4]; human, 30 min, NADPH) | Liver Microsome Stability-% Left after 30 min w/ NADPH (%) Mouse ([5]; mouse, 30 min, NADPH) | pIC50 ([6]; 293FRT/TO) | Liver Microsome Stability-% Left after 30 min w/ NADPH (%) Rat ([7]; rat, 30 min, NADPH) | pIC50 [8] | pEC50 [9, 13] | pIC50 [10] | pIC50 ([1]; Dox inducible, 293FRT/TO cells) | pEC50 ([2]; U266, Celltiter-Glo) | Liver Microsome Stability-% Left after 30 min w/ NADPH (%) Monkey [3, 14] | Liver Microsome Stability-% Left after 30 min w/ NADPH (%) Human [4, 15] | Liver Microsome Stability-% Left after 30 min w/ NADPH (%) Mouse [5, 16] | pIC50 ([6]; Dox inducible, 293FRT/TO cells) | pIC50 [11] | Liver Microsome Stability-% Left after 30 min w/ NADPH (%) Rat [7, 17] | pEC50 ([9]; H929, Celltiter-Glo)
C=C1CN(S(=O)(=O)c2ccc(C)cc2)CCCN(CC2CCCCC2)CCCN(S(=O)(=O)c2ccc(C)cc2)C1 [A2] | 6.46 | < 4.60 | 0.09% | 0.04% | 0.09% | < 4.60 | 0.59% | 6.09 | 4.99 | – | – | – | – | – | – | – | – | – | –
C=C1CN(S(=O)(=O)c2ccc(C)cc2)CCCN(CC2CCCCC2)CCCN(S(=O)(=O)c2ccc(OC)cc2)C1 [A3] | 6.62 | < 4.60 | 0.83% | 0.25% | 0.09% | 4.94 | 0.37% | 6.20 | 5.29 | – | – | – | – | – | – | – | – | – | –
C=C1CN(S(=O)(=O)c2ccc(N(C)C)cc2)CCCN(CC2CCCCC2)CCCN(S(=O)(=O)N2CCC(c3ccccc3)CC2)C1 [A35, 4-{[9-(cyclohexylmethyl)-3-methylidene-5-[(4-phenylpiperidin-1-yl)sulfonyl]-1,5,9-triazacyclododecan-1-yl]sulfonyl}-N,N-dimethylaniline hydrochloride] | 7.08 | < 4.60 | 13.6% | 24.8% | 20.9% | < 4.92 | 30% | 6.61 | < 4.60 | – | – | – | – | – | – | – | – | – | –
CC(=O)N(C)c1ccc(CNS(=O)(=O)N2CCCN(CC3CCCCC3)CCCN(S(=O)(=O)c3ccc(N(C)C)cc3)C[C@H](C)C2)cc1 [A192, N-{4-[({[(3S)-9-(cyclohexylmethyl)-5-[4-(dimethylamino)benzenesulfonyl]-3-methyl-1,5,9-triazacyclododecan-1-yl]sulfonyl}amino)methyl]phenyl}-N-methylacetamide] | – | – | – | – | – | – | – | – | – | 5.63 | 5.94 | < 4.60 | 0.10% | 0.02% | 0.18% | < 4.60 | 5.77 | 0.08% | 5.03
C[C@H]1CN(S(=O)(=O)c2ccc3c(ccn3C)c2)CCCN(CC2CCCCC2)CCCN(S(=O)(=O)N2CCc3cc(Cl)ccc3C2)C1 [A188, 6-chloro-2-{[(3S)-9-(cyclohexylmethyl)-3-methyl-5-[(1-methyl-1 H-indol-5-yl)sulfonyl]-1,5,9-triazacyclododecan-1-yl]sulfonyl}-1,2,3,4-tetrahydroisoquinoline] | – | – | – | – | – | – | – | – | – | 7.00 | 7.41 | < 4.60 | 12.4% | 27% | 4.48% | 6.15 | 7.06 | 27.8% | 5.81
C[C@H]1CN(S(=O)(=O)c2ccc(N(C)C)cc2)CCCN(CC2CCC(F)(F)CC2)CCCN(S(=O)(=O)N2CCc3cc(Cl)ccc3C2)C1 [A185, 4-{[(3S)-5-[(6-chloro-1,2,3,4-tetrahydroisoquinolin-2-yl)sulfonyl]-9-[(4,4-difluorocyclohexyl)methyl]-3-methyl-1,5,9-triazacyclododecan-1-yl]sulfonyl}-N,N-dimethylaniline] | – | – | – | – | – | – | – | – | – | 7.07 | 7.36 | < 4.60 | 10.0% | 21.8% | 30.1% | 6.24 | 7.07 | 37.8% | 5.83
COc1cc(F)cc(N2CCN(S(=O)(=O)N3CCCN(CC4CCCCC4)CCCN(S(=O)(=O)c4ccc(N(C)C)cc4)C[C@H](C)C3)C[C@@H]2C)c1 [A194] | – | – | – | – | – | – | – | – | – | 6.40 | 6.58 | < 4.60 | 65.0% | 63.6% | 68.5% | < 4.60 | 6.52 | 59.2% | < 4.60
C[C@H]1CN(S(=O)(=O)c2ccc(N(C)C)cc2)CCCN(Cc2ccon2)CCCN(S(=O)(=O)N2CCc3cc(Cl)ccc3C2)C1 [A124, 4-{[(3S)-5-[(6-chloro-1,2,3,4-tetrahydroisoquinolin-2-yl)sulfonyl]-3-methyl-9-[(1,2-oxazol-3-yl)methyl]-1,5,9-triazacyclododecan-1-yl]sulfonyl}-N,N-dimethylaniline] | – | – | – | – | – | – | – | – | – | 6.10 | 6.22 | < 4.60 | 1.91% | 18.9% | 1.01% | < 4.60 | 6.04 | 1.25% | < 4.60
C[C@@H]1CN(S(=O)(=O)NCc2ccccc2)CCCN(CC2CCCCC2)CCCN(S(=O)(=O)c2ccc(N(C)C)cc2)C1 [A187, (3S)-N-benzyl-9-(cyclohexylmethyl)-5-[4-(dimethylamino)benzenesulfonyl]-3-methyl-1,5,9-triazacyclododecane-1-sulfonamide] | – | – | – | – | – | – | – | – | – | 5.96 | 6.37 | < 4.60 | 0.15% | 0.05% | 0.03% | 5.21 | 6.10 | 0.07% | 5.41
COc1ccccc1[C@@H]1CCCN(S(=O)(=O)N2CCCN(CC3CCCCC3)CCCN(S(=O)(=O)c3ccc(N(C)C)cc3)C[C@H](C)C2)C1 [A210] | – | – | – | – | – | – | – | – | – | 6.35 | 6.69 | < 4.60 | 55.4% | 47.4% | 76.0% | < 4.60 | 6.47 | 54.6% | < 4.60
